# No end group written: not given here.
# Key:
# [1] = tested on: Enterococcus faecalis ATCC 29212; test: Colony-forming unit (CFU) assay of antibacterial activity with NaCl dependence; assay type: cell-based; conditions: 200 mM NaCl compared to absence of salt
# Protocol: (§1) Colony-forming unit (CFU) assay of the antibacterial activity of the peptides against P.aeruginosa ATCC (American Type Culture Collection, Manassas, VA, USA) 27853, Enterococcus faecalis ATCC 29212 and Escherichia coli ATCC 25922 was performed. The strains were grown in aerobic conditions in tryptic soy broth (Difco Laboratories, Detroit, MI, USA) at 37°C. Cells from exponential-phase cultures were centrifuged, washed and suspended to a density of 1 x 10^5 CFU/mL in sterile 10 mM potassium phosphate buffer, pH 7.4, and incubated in the presence of the peptides. The incubation time was 2 h at 37°C. […] For salt dependence assay, NaCl in a range of concentrations potentially present in the airway surface fluid of normal subjects and CF patients (33), i.e., 0, 50, 100 and 200 mM NaCl, were included in the incubation buffer. The cells were then diluted serially in the same buffer, spread on tryptone-yeast (Difco Laboratories) plates and the colonies were counted after 18 h at 37°C. Each assay was performed in triplicate. Bactericidal activity (mean and SD of three assays) is expressed as the ratio between colonies counted and the number of colonies on a control plate.
# [2] = tested on: Escherichia coli ATCC 25922; test: as above; assay type: cell-based; conditions: 200 mM NaCl compared to absence of salt
# Protocol: as §1
# P.aeruginosa ATCC 27853 = test: as above; assay type: cell-based
# Protocol: as §1
# monocytes = test: Chemotaxis assay (leukocyte migration, calcein fluorescence); assay type: cell-based, human
# Protocol: (§2) Preparation of leukocytes-Monocytes and neutrophils were isolated as described in the StemSep Cell Technical Manual (Stem Cell Technologies, Vancouver, Canada). Briefly, to obtain neutrophils, buffy coats were diluted 1:20 in NH4Cl supplemented with 2 mM EDTA and incubated on ice for 20 min. Cell suspensions were centrifuged for 10 min at 600 X g at room temperature with the brake off and washed three times with phosphate buffered saline (PBS) supplemented with 2% foetal bovine serum and 2 mM EDTA. Cell viability was assessed by analysis of light scatter properties, and cell count was performed using a logical gate strategy based on Trucount tubes (Becton-Dickinson, San Jose, CA, USA). Neutrophils were purified from lysed buffy coats using StemSep negative selection system. To this purpose, 100x10^6 mononuclear cells from lysed buffy coats were incubated with 100 µL of custom antibody cocktail for human granulocytes enrichment (Stem Cell Technologies) for 45 min on ice. In addition, cell suspensions were incubated with 60 µL of magnetic colloid for 30 minutes on ice. Finally, the samples were run through a 0.3-inch column matrix in a negative selection system in which the unwanted cells were immunomagnetically labelled and bound to the magnetic column. Neutrophils, after the separation, were collected in the column flowthrough without antibody bound to their surface. In order to obtain monocytes, human buffy coats were layered over a Ficoll-Paque density gradient and spun at 600 X g for 30 min with the brake off. The mononuclear cell-rich fractions were washed three times with PBS supplemented with 2% foetal bovine serum (FBS) and 2 mM EDTA. Cell viability was assessed by analysis of light scatter properties, and cell count was performed using a logical gate strategy based on Trucount tubes (Becton-Dickinson). A custom antibody cocktail for human monocyte enrichment (Stem Cells Technologies) was used for immunomagnetic negative selection of monocytes. Mononuclear cells were incubated as above described for neutrophils. Both neutrophils and monocytes were resuspended in 5.0 mL of RPMI-1640 (Sigma-Aldrich, St Louis, MO, USA) without phenol red containing 10% heat-treated FBS. Calcein AM (Molecular Probes, Eugene, OR, USA) was added to the cell suspensions (5.0 mL) at a concentration of 5 µg/mL and the cells were incubated for 30 min at 37°C. Cell suspensions were washed twice with PBS and then resuspended in RPMI-FBS to the desired concentration.
# (§3) Measurement of leukocytes migration-The chemotaxis assay of monocytes and neutrophils (90-95% of purity) was performed in 96-well disposable chemotaxis chambers (Neuroprobe, Gaithersburg, MD, USA) using polyvinyl-pyrrolidone-free polycarbonate membranes with an […] pore size for monocytes and with a […] pore size for neutrophils. Chemotaxis was measured by fluorescence detection, using the calcein fluorescence signal. The fluorescence was read in a microplate fluorescence reader (Victor 3 1420 Multilabel Counter, Perkin Elmer) with excitation/emission wave-length settings of 485/530 nm. We calculated the migration index as the ratio between the sample mean fluorescence (after subtraction of the negative control mean fluorescence)/positive control mean fluorescence. Each assay was performed in quadruplicate.
# neutrophils = test: as above; assay type: cell-based, human
# Protocol: as §2, §3
# HSV-1 = HSV-1 infectivity plaque assay on Vero cell monolayers (co-exposure, virus pre-treatment, cell pre-exposure); assay type: cell-based; conditions: for % of infectivity: peptide 20 µM, mean and SD of 3 replicates
# Protocol: Vero cells were grown in Dulbecco's modified Eagle's medium (DMEM) supplemented with 10% foetal calf serum. HSV-1 carrying a IacZ gene driven by the cytomegalovirus (CMV) IE-1 promoter to express beta-galactosidase was propagated as described (33). Peptides were dissolved in DMEM with serum and used at different concentrations. All experiments were conducted in parallel with scrambled peptides and no-peptide controls. […] Non-penetrated viruses were inactivated by citrate buffer at pH 3.0 after the 45 min incubation with cells at 37°C. The cells were then incubated for 48 h at 37°C in DMEM supplemented with carboxymethylcellulose (CMC). Monolayers were fixed, stained with 5-bromo-4-chloro-3-indolyl-beta-D-galactopyranoside (X-gal) and plaque numbers were scored. Experiments were performed in triplicate and the percentage of inhibition was calculated with respect to no-peptide control experiments. ii) For "virus pre-treatment" experiments, approximately 2 x 10^4 plaque forming units (PFU) of HSV-1 were incubated in the presence of 20 µM of peptides for 45 min at 37°C, then titrated on Vero cell monolayers. iii) For "cell pre-exposure" experiments, Vero cells were incubated with 20 µM of peptides for 30 min at 4°C. Peptides were removed, and cells were washed with phosphate-buffered saline before being infected with serial dilutions of HSV-1 and incubated for 45 min at 37°C.
# Monolayers were exposed to different concentrations (10, 50, 100, 250 and 500 µM) of each peptide for 24 h, and cell viability was evaluated with the LDH assay. There was no significant difference between the viability of cells exposed to the peptides and that of cells exposed to control (data not shown). Thus, we evaluated the antiviral activity of wild type peptides and their analogs in: co-exposure experiments (cell + virus + peptide at zero time); virus pre-treatment (virus + peptide incubation before cell infection); and cell pre-exposure (cell + peptide incubation before virus infection). This would allow to evaluate if, and in which phase, the peptides could inhibit the virus infectivity.
# For co-exposure experiments, we incubated the peptides on the monolayers of Vero cells together with the virus inoculum for 45 min before low pH treatment. The reduced form of wild-type hBD1 and hBD3 and analogs 1C, 1 N, 3C, 3N were used in all subsequent experiments. […] No control (peptide excluded) inhibited HSV-1 infectivity under similar experimental conditions.
substance,measurement,setting,value
"GIINTLQKYYCRVRGGRCAVLSCLPKEEQIGKCSTRGRKCCRRKK-OH (cysteines drawn unpaired) [hBD3 wt, reference compound]","antibacterial activity, effect of NaCl",[1],significantly inhibited
same,"antibacterial activity, effect of NaCl",[2],significantly inhibited
same,"antibacterial activity, effect of NaCl","P.aeruginosa ATCC 27853; peptide 2.5 µM, 50 mM NaCl versus 0 mM NaCl",unaffected
same,"antibacterial activity, effect of NaCl","P.aeruginosa ATCC 27853; peptide 2.5 µM, 100 mM NaCl versus 0 mM NaCl, p<0.01",slightly inhibited
same,"antibacterial activity, effect of NaCl","P.aeruginosa ATCC 27853; peptide 2.5 µM, 200 mM NaCl versus 0 mM NaCl, p<0.001",greatly inhibited
same,"antibacterial activity, effect of NaCl","P.aeruginosa ATCC 27853; peptide 12.5 µM, 200 mM NaCl versus 0 mM NaCl, p<0.001",strongly inhibited
same,"chemotactic activity, effect of NaCl",monocytes; 200 mM NaCl,comparable to that obtained at 100 mM NaCl
same,"chemotactic activity, effect of NaCl","monocytes; NaCl between 100 and 150 mM, p<0.001",significantly increased
same,chemotactic activity compared to wild-type hBD1,monocytes; peptide 1.25 µM,significantly higher
same,"chemotactic activity, effect of NaCl","neutrophils; NaCl from 100 to 150 mM, p<0.001",significantly reduced
same,chemotactic activity compared to wild-type hBD1,neutrophils; peptide 1.25 µM,significantly lower activity
same,% of infectivity,HSV-1; cell pre-exposure,14.5±2.3%
same,% of infectivity,HSV-1; co-exposure,23.4±2.5%
same,inhibition of HSV infectivity,"HSV-1; co-exposure, peptide 50 µM, reduced form",100%
same,% of infectivity,HSV-1; virus pre-incubation,45±1.5%

# Reference: patent publication EP2077274A1, “Synthetic analogs of human beta-defensins having antimicrobial, antiviral and chemotactic activity” (Ceinge Biotecnologie Avanzate s.c. a r.l., priority 2008, dated 2009)
